Legend:
[1] = Cytotoxicity, resazurin assay; assay type: cell-based; conditions: human, HEK 293T cells, 24 h treatment
[2] = test system: HIV-1; assay: microbe, parasite or virus in culture; assay type: cell-based; conditions: for IC50: Human immunodeficiency virus 1, HEK293, 48 h
[3] = test system: HIV-1; assay type: cell-based; conditions: OMK cells, 10 µM, 2.5 µM CsA
[4] = target: T1, HIV-1 CANC (Human immunodeficiency virus type 1 group M subtype B, UniProt P12493); assay: Disassembly inhibitor test for HIV (DITH), stability of preassembled CANC particles, with TEM; conditions: 10 µM; for TEM of CANC particles after incubation in disassembly buffer: after DITH, negative staining; for relative stability of HIV-1 CANC assemblies in disassembly buffer: CANC without inhibitor in disassembly buffer = 0%
[5] = target: T1, HIV-1 CANC; assay: Fast Assembly Inhibitor Test for HIV (FAITH), in vitro assembly of mature-like particles, with TEM; conditions: 10 µM; for TEM phenotype of CANC assembled in presence of inhibitor: after FAITH, negative staining
[6] = Cytotoxic effect on OMK cells; assay type: cell-based; conditions: owl monkey, OMK (owl monkey kidney) cells

In the case of `CN(C(=O)[C@H](Cc1ccccc1)NC(=O)Cc1c[nH]c2ccccc12)c1ccccc1` [D1, (S)-2-(2-(1H-indol-3-yl)acetamido)-N-methyl-N,3-diphenylpropanamide], the CC50 at 24 h [1] is reported as over 40 µM, the “inhibitory activity against HIV-1 compared with PF74 (in words)” value [2] is reported as “only slightly weaker than that of PF74” and the IC50 [2] is reported as 3.5 ± 0.6 µM. For the same compound, the “effect on HIV-1 infectivity / uncoating in CsA-washout assay (in words)” value (shortened to “effect on HIV-1 infectivity / uncoating”) [3] was “strongest impact on HIV-1 infectivity in OMK cells at the early stage of HIV-1 infection” and the “stabilization of HIV-1 CANC compared with PF74 (in words)” value [4] was “only slightly less active in stabilization than PF74”.

In the case of `COc1ccc2c(c1)c(CC(=O)N[C@@H](Cc1ccccc1)C(=O)N(C)c1ccccc1)c(C)n2C(=O)c1ccc(Cl)cc1` [D2, (S)-2-(2-(1-(4-chlorobenzoyl)-5-methoxy-2-methyl-1H-indol-3-yl)acetamido)-N-methyl--N,3-diphenylpropanamide], the CC50 at 24 h [1] is reported as over 40 µM, the IC50 [2] is reported as 8 ± 1.2 µM and the “stabilization of HIV-1 CANC compared with PF74 (in words)” value [4] is reported as “lower effect on HIV-1 CANC stability than PF74”. For the same compound, the “TEM of CANC particles after incubation in disassembly buffer” value (“TEM of CANC particles after incubation” below) [4] was “mainly disassembled material”.

In the case of `CC(C)Cc1ccc([C@@H](C)C(=O)N[C@@H](Cc2ccccc2)C(=O)N(C)c2ccccc2)cc1` [D4R, (S)-2-((R)-2-(4-isobutylphenyl)propanamido)-N-methyl-N,3-diphenylpropanamide], the CC50 at 24 h [1] is reported as 27 ± 3.5 µM, the IC50 [2] is reported as over 20 µM and the “stabilization of HIV-1 CANC compared with PF74 (in words)” value [4] is reported as “lower effect on HIV-1 CANC stability than PF74”. For the same compound, the “TEM of CANC particles after incubation” value [4] was “mainly disassembled material”.

In the case of `CN(C(=O)[C@H](Cc1ccccc1)NC(=O)[C@@H]1Cc2ccccc2C(=O)N1)c1ccccc1` [D7, (S)-N-((S)-1-(methyl(phenyl)amino)-1-oxo-3-phenylpropan-2-yl)-1-oxo-1,2,3,4--tetrahydroisoquinoline-3-carboxamide], the CC50 at 24 h [1] is reported as over 40 µM, the IC50 [2] is reported as over 20 µM and the “stabilization of HIV-1 CANC compared with PF74 (in words)” value [4] is reported as “lower effect on HIV-1 CANC stability than PF74”. The “TEM of CANC particles after incubation” value [4] was “mainly disassembled material” and the “TEM phenotype of CANC assembled in presence of inhibitor” value (shortened to “TEM phenotype … of inhibitor”) [5] was “long, tubular structures”.

For `CN(C(=O)[C@H](Cc1ccccc1)NC(=O)[C@H]1Cc2ccccc2C(=O)N1C)c1ccccc1` [D8R, (R)-2-methyl-N-((S)-1-(methyl(phenyl)amino)-1-oxo-3-phenylpropan-2-yl)-1-oxo--1,2,3,4-tetrahydroisoquinoline-3-carboxamide], the CC50 at 24 h [1] was over 40 µM, the “inhibitory activity against HIV-1 compared with PF74 (in words)” value [2] was “only slightly weaker than that of PF74” and the IC50 [2] was 4.5 ± 1.5 µM. For the same compound, the “effect on HIV-1 infectivity / uncoating” value [3] was “major effect”, the “stabilization of HIV-1 CANC compared with PF74 (in words)” value [4] was “lower effect on HIV-1 CANC stability than PF74” and the “TEM of CANC particles after incubation” value [4] was “mainly disassembled material”.

With `CN(C(=O)[C@H](Cc1ccccc1)NC(=O)[C@@H]1Cc2ccccc2C(=O)N1C)c1ccccc1` [D8S, (S)-2-methyl-N-((S)-1-(methyl(phenyl)amino)-1-oxo-3-phenylpropan-2-yl)-1-oxo--1,2,3,4-tetrahydroisoquinoline-3-carboxamide] the CC50 at 24 h [1] was over 40 µM, the IC50 [2] was over 20 µM and the “stabilization of HIV-1 CANC compared with PF74 (in words)” value [4] was “lower effect on HIV-1 CANC stability than PF74”. The “TEM of CANC particles after incubation” value [4] was “mainly disassembled material”.

With `CN(C(=O)[C@H](Cc1ccccc1)NC(=O)Cc1n[nH]c2ccccc12)c1ccccc1` [D9, (S)-2-(2-(1H-indazol-3-yl)acetamido)-N-methyl-N,3-diphenylpropanamide] the CC50 at 24 h [1] was over 40 µM, the “inhibitory activity against HIV-1 compared with PF74 (in words)” value [2] was “only slightly weaker than that of PF74” and the IC50 [2] was 3.4 ± 0.9 µM. For the same compound, the “effect on HIV-1 infectivity / uncoating” value [3] was “highly active during the first two hours post infection, then its activity dropped”, the “stabilization of HIV-1 CANC compared with PF74 (in words)” value [4] was “more potent stabilizers than PF74” and the “relative stability of HIV-1 CANC assemblies in disassembly buffer” value (from here on “relative stability”) [4] was 80%. For the same compound, the “TEM of CANC particles after incubation” value [4] was “intact CANC particles”.

With `CN(C(=O)[C@H](Cc1ccccc1)NC(=O)NCc1nc2ccccc2[nH]1)c1ccccc1` [D10, (S)-2-(3-((1H-benzo[d]imidazol-2-yl)methyl)ureido)-N-methyl-N,3-diphenylpropanamide] the CC50 at 24 h [1] was 10 ± 1.6 µM, the “inhibitory activity against HIV-1 compared with PF74 (in words)” value [2] was “better inhibitory activity against HIV-1 than PF74” and the IC50 [2] was 0.5 ± 0.3 µM. For the same compound, the CC50 [6] was under 3 µM, the “stabilization of HIV-1 CANC compared with PF74 (in words)” value [4] was “more potent stabilizers than PF74” and the “relative stability” value [4] was 90%. For the same compound, the “TEM of CANC particles after incubation” value [4] was “intact CANC particles” and the “TEM phenotype … of inhibitor” value [5] was “predominant formation of cone-like and shorter tubular structures”.

With `Cc1[nH]c2ccccc2c1CC(=O)N[C@@H](Cc1ccccc1)C(=O)N(C)c1ccccc1` [PF74] the CC50 at 24 h [1] was over 40 µM, the IC50 [2] was 1.75 ± 0.5 µM and the “effect on HIV-1 infectivity / uncoating” value [3] was “strongest impact on HIV-1 infectivity in OMK cells at the early stage of HIV-1 infection”. The “relative stability” value [4] was “about 60%”, the “TEM of CANC particles after incubation” value [4] was “intact CANC particles” and the “effect on assembly of mature-like CANC particles (in words)” value ([5]; CANC without inhibitor = 100%) was “no effect”. For the same compound, the “TEM phenotype … of inhibitor” value [5] was “predominant formation of cone-like and shorter tubular structures”.
